Data from article PMC10177380 (Cancers, 2023).
Like-named read-outs stand apart in the source and are kept apart here.

Experiments:
BE2C neuroblastoma = test system: BE2C neuroblastoma; design: method as in PMID 36296713, PMID 36142383; conditions: cited from earlier work
HT29 colon = test system: HT29 colon; design: method as in PMID 36296713, PMID 36142383; conditions: cited from earlier work
MCF10A / Du145 [1] = test system: MCF10A / Du145; design: method as in PMID 36296713, PMID 36142383; conditions: GI50 in MCF10A/GI50 in Du145, from data of previous studies; cited from earlier work
[2] = test system: ADDP ovarian variant (cisplatin-resistant A2780 clone); design: method as in PMID 36296713, PMID 36142383; conditions: cited from earlier work
multiple cell lines = test system: multiple cell lines; design: method as in PMID 36296713, PMID 36142383; conditions: mean over all cell lines tested; cited from earlier work
A2780 ovarian = test system: A2780 ovarian; design: method as in PMID 36296713, PMID 36142383; conditions: cited from earlier work
[3] = test system: PC3 (prostate carcinoma) tumour; design: method as in PMID 18997969; conditions: mice with PC3 tumour, cited from earlier work; for reduction in mean tumour mass: relative to vehicle-treated control
MIA pancreas = test system: MIA pancreas; design: method as in PMID 36296713, PMID 36142383; conditions: cited from earlier work
Du145 prostate = test system: Du145 prostate; design: method as in PMID 36296713, PMID 36142383; conditions: cited from earlier work
SJG2 glioblastoma = test system: SJG2 glioblastoma; design: method as in PMID 36296713, PMID 36142383; conditions: cited from earlier work
U87 glioblastoma = test system: U87 glioblastoma; design: method as in PMID 36296713, PMID 36142383; conditions: cited from earlier work
MCF7 breast = test system: MCF7 breast; design: method as in PMID 36296713, PMID 36142383; conditions: cited from earlier work
HT29 colon cells = test system: HT29 colon cells; design: method as in PMID 36296713, PMID 36142383; conditions: cited from earlier work
H460 lung = test system: H460 lung; design: method as in PMID 36296713, PMID 36142383; conditions: cited from earlier work
A431 skin = test system: A431 skin; design: method as in PMID 36296713, PMID 36142383; conditions: cited from earlier work
[4] = test system: peritoneal carcinomatosis; design: method as in PMID 20535526; conditions: BD-IX rats, intravenous and intraperitoneal routes; cited from earlier work
MCF10A / Du145 [5] = assay: Selectivity cytotoxicity index (GI50 in MCF10A/GI50 in Du145); conditions: GI50 in MCF10A/GI50 in Du145
[6] = Lipophilicity by HPLC (log kw); type: physicochemical; conditions: extrapolated from log k versus % organic solvent
Protocol: Lipophilicity measurements were undertaken using HPLC, as previously described (see Supplementary Materials).
Lipophilicity measurements were undertaken using HPLC as previously described. The complexes were eluted at different isocratic ratios. The capacity factor (k) was calculated using the retention times of the complexes. A standard curve was generated to determine the log value of the capacity factor (log k), and this was performed by plotting the log k value at each isocratic ratio versus the percentage of the organic solvent used in solvent (Figure S61). This produced a linear expression that allowed for the extrapolation of log kw. Log kw is the measure of lipophilicity; therefore, a greater value corresponds to increased lipophilicity.

[7] = Selectivity cytotoxicity index (GI50 in MCF10A/GI50 in Du145); conditions: human, MCF10A normal breast cells and Du145 prostate cancer cells
[8] = design: method as in earlier work; conditions: cited from earlier work
[9] = Stability in 10 mM PBS monitored by HPLC; type: physicochemical; conditions: 10 mM PBS pH ~7.4, 36 h, room temperature and 37 °C
Protocol: The stability measurements for complexes 1–6 were determined by dissolving each complex in 10 mM aqueous phosphate buffered saline (PBS) solution at pH ~7.4 and incubated at room temperature and at 37 °C for 36 h. The experiments were monitored via HPLC.
Additional stability studies for 1–6 were undertaken using 10 mM PBS (~7.4 pH) as the aqueous solution, but without the presence of a reducing agent such as AsA. This was only to show whether the complexes would be stable in aqueous solution for long hours. Each complex was dissolved in PBS and incubated at room temperature and at 37 °C for 36 h. After the incubation, all samples were analysed through HPLC. […] After 36 h at room temperature, peak traces of platinum(IV) complexes and the platinum(II) precursors, as well as the dissociated ACE ligand, were present, as shown in Figure S77. […] From this, it was reasoned that the larger the ligand conjugated to our platinum(IV) scaffold (i.e., ACE), the more susceptible the resulting derivatives (4–6) are to reduction, as they reduce even without a reducing agent. This parallels the results from the reduction experiments above, where 4–6 were the quickest to reduce in the presence of AsA.

SMILES | GI50 (BE2C neuroblastoma) [nM] | GI50 (HT29 colon) [nM] | Selectivity Cytotoxicity Index (SCI) (MCF10A / Du145 [1]) | GI50 [2] [nM] | GI50 (multiple cell lines) [nM] | GI50 (A2780 ovarian) [nM] | GI50 (MIA pancreas) [nM] | GI50 (Du145 prostate) [nM] | GI50 (SJG2 glioblastoma) [nM] | GI50 (U87 glioblastoma) [nM] | GI50 (MCF7 breast) [nM] | ROS Production (HT29 colon cells; HT29, 24 h) [RFU] | ROS Production (HT29 colon cells; HT29, 48 h) [RFU] | ROS Production (HT29 colon cells; HT29, 72 h) [RFU] | GI50 (H460 lung) [nM] | GI50 (A431 skin) [nM] | Selectivity Cytotoxicity Index (SCI) (MCF10A / Du145 [5]) | log kw Values [6] | other results
C1=C[N]2[Pt+2][N]3C=CC=c4ccc(c2c43)=C1.N[C@H]1CCCC[C@@H]1N [PHENSS] | 380 ± 46 | 160 ± 45 | 3.00 | 190 ± 47 | 434 ± 110 | 230 ± 30 | 200 ± 57 | 100 ± 38 | 330 ± 66 | 980 ± 270 | 1500 ± 500 | 174 ± 2 | 172 ± 9 | 176 ± 7 | 360 ± 35 | 480 ± 170 |  |  | reduction in mean tumour mass [3]: comparable reduction in mean tumour mass; toxic side effects [3]: did not elicit any toxic side effects
Cc1c(C)c2cccnc2c2ncccc12.N[C@H]1CCCC[C@@H]1N.[Pt] [Complex 56MESS, [Pt^II(5,6-Me2phen)(SS-DACH)]^2+] | 59 ± 4 | 10 ± 1.6 | 3.48 | 13 ± 2 | 36 ± 10 | 76 ± 57 | 13 ± 2 | 4.6 ± 0.4 | 66 ± 22 | 35 ± 6.4 | 93 ± 44 | 240 ± 5 | 218 ± 3 | 255 ± 4 | 21 ± 2 | 29 ± 1 |  |  | toxicity [4]: induced nephrotoxicity; tumour suppression response [4]: did not demonstrate tumour suppression response
Cc1cc2c3c4c1=CC=C[N]4[Pt+2][N]3C=CC=2.N[C@H]1CCCC[C@@H]1N [Complex 5MESS] | 270 ± 38 | 33 ± 4 | 1.36 | 34 ± 2 | 117 ± 12 | 61 ± 10 | 48 ± 2 | 22 ± 3 | 220 ± 10 | 320 ± 26 | 200 ± 12 | 204 ± 4 | 205 ± 3 | 188 ± 3 | 41 ± 5 | 120 ± 25 |  |  | 
COc1ccc2c(c1)c(CC(=O)OCC(=O)[O][Pt-2]13([OH])([NH2+][C@H]4CCCC[C@@H]4[NH2+]1)[n+]1cccc4cc(C)c5ccc[n+]3c5c41)c(C)n2C(=O)c1ccc(Cl)cc1 [Complex 5, [Pt^IV(5-Mephen)(SS-DACH)(ACE)(OH)]^2+] |  |  |  |  |  |  |  |  |  |  |  |  |  |  |  |  | 15.4 | 2.16 | 
COc1ccc2c(c1)c(CC(=O)OCC(=O)O)c(C)n2C(=O)c1ccc(Cl)cc1 [ACE, acemetacin] |  |  |  |  |  |  |  |  |  |  |  |  |  |  |  |  |  |  | selectivity ratio [7]: 1; reported lipophilicity values [8]: 4.49
COc1ccc2c(c1)c(CC(=O)OCC(=O)[O][Pt-2]13([OH])([NH2+][C@H]4CCCC[C@@H]4[NH2+]1)[n+]1cccc4c(C)c(C)c5ccc[n+]3c5c41)c(C)n2C(=O)c1ccc(Cl)cc1 [Complex 6, [Pt^IV(5,6-Me2phen)(SS-DACH)(ACE)(OH)]^2+] |  |  |  |  |  |  |  |  |  |  |  |  |  |  |  |  | 15.5 | 2.29 | 
COc1ccc2c(c1)c(CC(=O)OCC(=O)[O][Pt-2]13([OH])([NH2+][C@H]4CCCC[C@@H]4[NH2+]1)[n+]1cccc4ccc5ccc[n+]3c5c41)c(C)n2C(=O)c1ccc(Cl)cc1 [Complex 4, [Pt^IV(phen)(SS-DACH)(ACE)(OH)]^2+] |  |  |  |  |  |  |  |  |  |  |  |  |  |  |  |  | 2.40 | 1.93 | 
N.N.[Cl][Pt][Cl] [Cisplatin, cis-diamminedichloroplatinum(II)] | 1900 ± 200 | 11300 |  | 28000 | 5840 ± 610 | 1000 ± 100 | 7500 ± 1300 | 1200 ± 100 | 400 ± 100 | 3800 ± 1100 | 6500 ± 800 |  |  |  | 900 ± 200 | 2400 ± 300 |  |  | reduction in mean tumour mass [3]: comparable reduction in mean tumour mass
COc1ccc2cc([C@H](C)C(=O)[O][Pt+2]3([OH])[N]4C=CC=c5cc(C)c6c(c54)[N]3C=CC=6)ccc2c1.N[C@H]1CCCC[C@@H]1N (some centres unmarked) [Complex 2, [Pt^IV(5-Mephen)(SS-DACH)(NPX)(OH)]^2+] |  |  |  |  |  |  |  |  |  |  |  |  |  |  |  |  |  |  | stability in PBS [9]: some traces of precursor platinum(IV) complexes and the dissociated NPX ligand were evident
